Blank lines part the entries; values can stand above or below the molecule they belong to. Activity calls are given as the source filed them.
Key:
[1] = target: Voltage-gated inwardly rectifying potassium channel KCNH2 (Homo sapiens, UniProt Q12809); assay: concentration-dependent hERG rescue from blockers – cell-based, thallium flux, dose response (AID 2121); type: ADME
[2] = HPDE-C7 pancreatic duct cell viability loss – fluorescence, HTS (AID 430); type: functional, cell-based; details: Homo sapiens
[3] = viability loss of HPDE-C7K cells – cell-based, fluorescence, HTS, primary screen (AID 431); type: functional; details: Homo sapiens
Protein Tat = target: T1, Protein Tat (Human immunodeficiency virus type 1 group M subtype B (isolate HXB2)(HIV-1), UniProt P04608); type: functional;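 further: tat binding to TAR RNA read out by fluorescence polarization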
T1 sequence (P04608 whole entry): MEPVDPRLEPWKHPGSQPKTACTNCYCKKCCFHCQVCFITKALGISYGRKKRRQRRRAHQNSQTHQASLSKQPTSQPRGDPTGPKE

[4] = target: T2, Calpain-2 catalytic subunit (Sus scrofa, UniProt P43367); assay: m-calpain protease blockers, concentration series – biochemical, fluorogenic peptide substrate, dose response (AID 1420); type: functional
T2 sequence (P43367 whole entry): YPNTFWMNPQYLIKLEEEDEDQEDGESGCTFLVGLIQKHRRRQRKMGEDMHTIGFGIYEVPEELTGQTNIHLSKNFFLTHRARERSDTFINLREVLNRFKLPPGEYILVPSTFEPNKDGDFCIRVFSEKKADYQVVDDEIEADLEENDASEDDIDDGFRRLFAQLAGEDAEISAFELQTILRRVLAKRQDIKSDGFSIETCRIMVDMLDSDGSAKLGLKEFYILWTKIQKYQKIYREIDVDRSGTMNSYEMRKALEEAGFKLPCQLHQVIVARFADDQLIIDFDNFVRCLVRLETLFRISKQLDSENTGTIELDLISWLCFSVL

[5] = target: T3, Corticotropin-releasing factor receptor 2/Corticotropin-releasing factor-binding protein (Homo sapiens, UniProt P24387+Q13324); assay: Dose Response confirmation of uHTS hits for small molecule antagonists of the CRF-binding protein and CRF-R2 receptor complex.; type: functional; details: read-out: IC50_Mean
T3 sequence (Q13324 whole entry): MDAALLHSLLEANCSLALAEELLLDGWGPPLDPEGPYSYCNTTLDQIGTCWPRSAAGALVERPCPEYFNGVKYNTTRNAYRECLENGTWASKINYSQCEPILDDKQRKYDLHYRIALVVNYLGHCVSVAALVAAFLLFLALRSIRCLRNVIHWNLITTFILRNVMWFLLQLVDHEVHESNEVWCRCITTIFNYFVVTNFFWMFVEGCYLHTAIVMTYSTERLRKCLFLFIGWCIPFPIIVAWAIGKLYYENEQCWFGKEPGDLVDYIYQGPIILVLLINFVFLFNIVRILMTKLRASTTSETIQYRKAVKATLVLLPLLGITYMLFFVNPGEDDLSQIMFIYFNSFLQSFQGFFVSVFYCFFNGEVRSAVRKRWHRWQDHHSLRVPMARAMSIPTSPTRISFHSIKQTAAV
T3 sequence (P24387 whole entry): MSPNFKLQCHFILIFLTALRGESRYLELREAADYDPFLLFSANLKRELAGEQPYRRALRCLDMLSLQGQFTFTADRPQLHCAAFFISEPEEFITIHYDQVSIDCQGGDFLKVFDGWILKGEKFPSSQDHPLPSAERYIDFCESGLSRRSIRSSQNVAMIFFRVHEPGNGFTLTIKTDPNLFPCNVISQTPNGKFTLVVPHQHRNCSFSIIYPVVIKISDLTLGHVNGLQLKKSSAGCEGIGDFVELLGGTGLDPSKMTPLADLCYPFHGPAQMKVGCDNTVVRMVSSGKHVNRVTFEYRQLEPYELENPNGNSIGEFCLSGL

[6] = target: T3, Corticotropin-releasing factor receptor 2/Corticotropin-releasing factor-binding protein; assay: activators of CRF receptor 2 with binding protein – uHTS hits, confirmation (AID 602473); type: functional; details: read-out: EC50_Mean
[7] = target: T4, 1-phosphatidylinositol 4,5-bisphosphate phosphodiesterase gamma-1 (Homo sapiens, UniProt P19174); assay: Counterscreen for inhibitors of phospholipase C isozymes (PLC-B3): Fluorescence-based biochemical high throughput dose response assay to identify inhibitors of phospholipase C isozymes (PLC-gamma1).
T4 sequence (P19174 whole entry): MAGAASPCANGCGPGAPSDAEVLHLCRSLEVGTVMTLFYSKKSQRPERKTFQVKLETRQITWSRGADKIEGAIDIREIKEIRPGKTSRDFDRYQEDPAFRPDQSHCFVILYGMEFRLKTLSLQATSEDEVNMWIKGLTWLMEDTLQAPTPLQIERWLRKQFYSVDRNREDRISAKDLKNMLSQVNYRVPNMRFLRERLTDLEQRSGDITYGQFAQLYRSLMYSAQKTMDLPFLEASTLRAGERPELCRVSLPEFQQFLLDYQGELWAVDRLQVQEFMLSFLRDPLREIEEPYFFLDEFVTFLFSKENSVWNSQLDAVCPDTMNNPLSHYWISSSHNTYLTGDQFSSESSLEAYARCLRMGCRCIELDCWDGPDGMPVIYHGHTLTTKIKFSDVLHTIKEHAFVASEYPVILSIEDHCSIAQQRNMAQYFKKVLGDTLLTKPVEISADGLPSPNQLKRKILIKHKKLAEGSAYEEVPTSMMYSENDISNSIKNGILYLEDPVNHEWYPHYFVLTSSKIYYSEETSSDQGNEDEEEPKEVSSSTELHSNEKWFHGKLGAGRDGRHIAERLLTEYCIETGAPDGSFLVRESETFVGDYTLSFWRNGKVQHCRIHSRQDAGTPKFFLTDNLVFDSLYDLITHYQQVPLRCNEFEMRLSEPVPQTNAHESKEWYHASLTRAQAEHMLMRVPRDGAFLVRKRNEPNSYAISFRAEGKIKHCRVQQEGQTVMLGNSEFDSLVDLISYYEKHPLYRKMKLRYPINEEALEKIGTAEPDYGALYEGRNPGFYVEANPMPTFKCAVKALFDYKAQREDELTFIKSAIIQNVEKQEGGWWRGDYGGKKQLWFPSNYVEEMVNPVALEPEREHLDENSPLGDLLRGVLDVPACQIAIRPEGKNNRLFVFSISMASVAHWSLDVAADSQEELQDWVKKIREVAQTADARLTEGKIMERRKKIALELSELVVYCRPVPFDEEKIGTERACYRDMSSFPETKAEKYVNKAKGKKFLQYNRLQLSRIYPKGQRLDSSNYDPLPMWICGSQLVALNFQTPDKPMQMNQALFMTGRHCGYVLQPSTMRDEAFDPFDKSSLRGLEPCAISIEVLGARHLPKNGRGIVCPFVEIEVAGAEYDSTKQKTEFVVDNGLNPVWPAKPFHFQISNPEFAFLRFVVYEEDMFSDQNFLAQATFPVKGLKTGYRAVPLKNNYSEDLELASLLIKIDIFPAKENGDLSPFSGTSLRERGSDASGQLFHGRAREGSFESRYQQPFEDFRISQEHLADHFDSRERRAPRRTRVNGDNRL

[8] = target: T5, 1-phosphatidylinositol 4,5-bisphosphate phosphodiesterase beta-3 (Homo sapiens, UniProt Q01970); assay: Fluorescence-based biochemical high throughput dose response assay to identify inhibitors of phospholipase C isozymes (PLC-B3).
T5 sequence (Q01970 whole entry): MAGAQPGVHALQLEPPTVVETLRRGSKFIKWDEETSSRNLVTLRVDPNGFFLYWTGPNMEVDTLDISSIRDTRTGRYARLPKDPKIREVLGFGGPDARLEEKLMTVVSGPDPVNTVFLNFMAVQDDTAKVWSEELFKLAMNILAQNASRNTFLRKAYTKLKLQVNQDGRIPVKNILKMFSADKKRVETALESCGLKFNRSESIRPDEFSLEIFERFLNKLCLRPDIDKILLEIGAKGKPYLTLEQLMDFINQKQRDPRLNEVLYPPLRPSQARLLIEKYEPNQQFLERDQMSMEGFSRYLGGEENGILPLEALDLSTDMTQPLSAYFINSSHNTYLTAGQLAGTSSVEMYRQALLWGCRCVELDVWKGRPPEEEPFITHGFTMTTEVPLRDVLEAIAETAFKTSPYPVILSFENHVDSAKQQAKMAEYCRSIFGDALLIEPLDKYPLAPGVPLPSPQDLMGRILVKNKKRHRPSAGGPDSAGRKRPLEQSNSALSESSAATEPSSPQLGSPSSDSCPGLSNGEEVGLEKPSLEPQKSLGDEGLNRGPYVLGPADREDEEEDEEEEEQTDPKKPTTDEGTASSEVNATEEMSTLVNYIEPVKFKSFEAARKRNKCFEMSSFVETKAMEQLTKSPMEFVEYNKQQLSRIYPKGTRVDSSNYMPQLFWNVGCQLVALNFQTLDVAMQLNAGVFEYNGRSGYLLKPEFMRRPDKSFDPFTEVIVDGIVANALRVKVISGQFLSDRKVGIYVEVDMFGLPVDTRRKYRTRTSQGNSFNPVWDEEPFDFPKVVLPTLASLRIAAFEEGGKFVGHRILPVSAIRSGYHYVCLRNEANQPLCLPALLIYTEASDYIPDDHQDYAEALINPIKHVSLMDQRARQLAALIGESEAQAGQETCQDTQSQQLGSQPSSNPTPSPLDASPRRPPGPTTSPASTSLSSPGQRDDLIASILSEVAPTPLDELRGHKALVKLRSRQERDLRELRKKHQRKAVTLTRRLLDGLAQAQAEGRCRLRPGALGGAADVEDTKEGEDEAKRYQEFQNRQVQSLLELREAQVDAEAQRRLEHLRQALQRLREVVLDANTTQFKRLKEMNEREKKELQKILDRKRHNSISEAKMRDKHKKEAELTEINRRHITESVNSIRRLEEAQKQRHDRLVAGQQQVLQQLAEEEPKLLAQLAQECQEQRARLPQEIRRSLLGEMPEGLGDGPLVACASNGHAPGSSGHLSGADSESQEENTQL

[9] = blockers of bursicon-stimulated LGR2 cAMP reporter – cell-based, HEK293, CRE-luciferase reporter, cherry pick, set 2, dose response (AID 743343); type: functional;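 further: transfected cells were stimulated with diluted bursicon conditioned medium after compound addition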
[10] = blockade of melanocortin 4 receptor signaling – cell-based, plate reader, cherry pick, counter-screen for LGR2 antagonist project, dose response (AID 743444); type: functional;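 further: transfected HEK 293 cells stimulated with alpha-MSH peptide; potency of inhibitors of the alpha-MSH evoked signal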
[11] = viability loss in HEK293 cells – cell-based, plate reader, cherry-picked samples, cytotoxicity control, dose response (AID 743446); type: functional
Large T antigen = Large T antigen (Simian virus 40, UniProt P03070); type: functional, Betapolyomavirus macacae;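 further: Confirmatory-stage PubChem screen for compounds that inhibit SV40 T antigen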
[12] = viability loss in THP-1 monocytes – THP-1 cells, cytotoxicity control for Vif-APOBEC3G degradation inhibitor project, dose response (AID 1117359); type: functional; details: THP-1
Genome polyprotein = Genome polyprotein (dengue virus type 2, UniProt P29990); assay: flavivirus cap methylation enzyme inhibition – biochemical, confirmation dose response, primary screen (AID 588689); type: functional
[13] = reduced cellular PGC1a acetyl-lysine signal – cell-based, cherry-picked samples, dose response (AID 720514); type: functional;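 further: potency may reflect raised or lowered acetylation signal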
[14] = P. falciparum Dd2 growth inhibitors, dose response, SYBR Green, cherry-picked samples (AID 1159567); type: functional, cell-based
[15] = toxicity to human hepatoma HepG2 cells – cell-based, cherry-picked samples, cytotoxicity control, dose response (AID 1159577); type: functional
[16] = growth inhibition of yeast DHODH-expressing 3D7 parasites – SYBR Green, dry powder samples, dose response (AID 1159570); type: functional, cell-based;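 further: parasite growth measured after 72 hours of compound exposure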
[17] = toxicity to human HepG2 hepatoma cells – cell-based, plate reader, dry powder samples, cytotoxicity control, dose response (AID 1159569); type: functional;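 further: inhibitor potency with signal falling toward the positive control level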
[18] = Dd2 malaria parasite growth inhibition potency – SYBR Green, dry powder samples, dose response (AID 1159566); type: functional, cell-based;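 further: potency for growth inhibition with lower SYBR green DNA signal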
[19] = growth inhibition of PfATP4-mutant resistant parasites – NITD609-resistant line, SYBR Green, dry powder, dose response (AID 1159571); type: functional, cell-based;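 further: parasites synchronized at ring stage by sorbitol before testing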

Chain of Voltage-gated inwardly rectifying potassium channel KCNH2 (Q12809 whole entry): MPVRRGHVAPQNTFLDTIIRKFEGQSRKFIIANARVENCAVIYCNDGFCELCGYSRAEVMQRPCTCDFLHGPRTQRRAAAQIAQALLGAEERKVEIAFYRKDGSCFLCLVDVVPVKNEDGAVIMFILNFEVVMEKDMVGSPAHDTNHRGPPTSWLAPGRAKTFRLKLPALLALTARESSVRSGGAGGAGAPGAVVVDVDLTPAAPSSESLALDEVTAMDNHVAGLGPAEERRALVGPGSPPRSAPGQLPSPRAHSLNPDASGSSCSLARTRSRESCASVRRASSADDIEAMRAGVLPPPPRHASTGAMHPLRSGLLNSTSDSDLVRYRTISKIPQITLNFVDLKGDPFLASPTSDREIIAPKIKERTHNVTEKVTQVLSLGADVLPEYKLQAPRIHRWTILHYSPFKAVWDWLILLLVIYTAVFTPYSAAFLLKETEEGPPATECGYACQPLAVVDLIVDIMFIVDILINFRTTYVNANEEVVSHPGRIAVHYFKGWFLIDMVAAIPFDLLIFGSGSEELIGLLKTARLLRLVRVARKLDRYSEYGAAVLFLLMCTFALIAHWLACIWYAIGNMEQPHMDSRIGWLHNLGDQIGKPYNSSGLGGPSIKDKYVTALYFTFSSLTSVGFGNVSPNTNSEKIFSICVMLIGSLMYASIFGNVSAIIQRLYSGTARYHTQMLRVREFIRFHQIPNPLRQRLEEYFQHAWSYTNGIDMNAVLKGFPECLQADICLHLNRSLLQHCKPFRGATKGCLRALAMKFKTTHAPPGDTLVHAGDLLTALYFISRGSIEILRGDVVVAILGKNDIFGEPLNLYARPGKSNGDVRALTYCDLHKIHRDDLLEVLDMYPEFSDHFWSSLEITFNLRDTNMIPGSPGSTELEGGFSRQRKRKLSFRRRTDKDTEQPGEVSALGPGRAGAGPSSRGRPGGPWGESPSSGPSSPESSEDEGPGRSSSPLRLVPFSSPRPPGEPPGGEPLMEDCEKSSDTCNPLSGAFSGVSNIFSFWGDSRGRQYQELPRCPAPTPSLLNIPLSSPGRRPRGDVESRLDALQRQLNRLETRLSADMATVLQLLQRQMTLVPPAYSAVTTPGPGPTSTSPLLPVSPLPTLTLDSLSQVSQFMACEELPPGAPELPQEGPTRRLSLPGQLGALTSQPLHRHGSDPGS
Chain of Genome polyprotein (P29990 2492-3391 limits assumed): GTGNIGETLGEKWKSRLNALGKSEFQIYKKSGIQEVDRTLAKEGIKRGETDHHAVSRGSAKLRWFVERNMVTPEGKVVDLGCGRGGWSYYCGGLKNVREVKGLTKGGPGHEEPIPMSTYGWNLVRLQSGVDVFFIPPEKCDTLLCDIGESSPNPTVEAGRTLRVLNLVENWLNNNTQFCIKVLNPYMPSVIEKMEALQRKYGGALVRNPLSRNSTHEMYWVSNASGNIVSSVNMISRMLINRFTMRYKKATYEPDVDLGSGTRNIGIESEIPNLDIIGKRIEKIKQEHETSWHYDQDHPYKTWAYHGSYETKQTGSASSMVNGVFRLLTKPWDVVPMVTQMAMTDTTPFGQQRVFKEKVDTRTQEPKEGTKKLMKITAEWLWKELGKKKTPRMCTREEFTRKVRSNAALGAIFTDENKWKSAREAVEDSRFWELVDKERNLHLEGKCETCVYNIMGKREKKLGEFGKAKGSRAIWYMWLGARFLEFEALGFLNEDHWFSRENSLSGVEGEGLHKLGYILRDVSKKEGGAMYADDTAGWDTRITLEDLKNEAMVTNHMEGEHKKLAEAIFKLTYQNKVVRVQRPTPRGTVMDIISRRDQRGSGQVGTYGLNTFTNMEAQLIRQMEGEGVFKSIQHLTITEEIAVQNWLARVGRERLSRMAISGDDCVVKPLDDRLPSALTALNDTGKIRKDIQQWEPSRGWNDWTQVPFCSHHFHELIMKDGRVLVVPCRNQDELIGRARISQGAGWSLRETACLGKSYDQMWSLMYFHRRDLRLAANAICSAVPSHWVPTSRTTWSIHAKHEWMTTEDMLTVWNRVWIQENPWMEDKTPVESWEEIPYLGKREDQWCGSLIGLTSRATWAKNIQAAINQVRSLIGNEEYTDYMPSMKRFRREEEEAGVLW
Chain of Large T antigen (P03070 whole entry): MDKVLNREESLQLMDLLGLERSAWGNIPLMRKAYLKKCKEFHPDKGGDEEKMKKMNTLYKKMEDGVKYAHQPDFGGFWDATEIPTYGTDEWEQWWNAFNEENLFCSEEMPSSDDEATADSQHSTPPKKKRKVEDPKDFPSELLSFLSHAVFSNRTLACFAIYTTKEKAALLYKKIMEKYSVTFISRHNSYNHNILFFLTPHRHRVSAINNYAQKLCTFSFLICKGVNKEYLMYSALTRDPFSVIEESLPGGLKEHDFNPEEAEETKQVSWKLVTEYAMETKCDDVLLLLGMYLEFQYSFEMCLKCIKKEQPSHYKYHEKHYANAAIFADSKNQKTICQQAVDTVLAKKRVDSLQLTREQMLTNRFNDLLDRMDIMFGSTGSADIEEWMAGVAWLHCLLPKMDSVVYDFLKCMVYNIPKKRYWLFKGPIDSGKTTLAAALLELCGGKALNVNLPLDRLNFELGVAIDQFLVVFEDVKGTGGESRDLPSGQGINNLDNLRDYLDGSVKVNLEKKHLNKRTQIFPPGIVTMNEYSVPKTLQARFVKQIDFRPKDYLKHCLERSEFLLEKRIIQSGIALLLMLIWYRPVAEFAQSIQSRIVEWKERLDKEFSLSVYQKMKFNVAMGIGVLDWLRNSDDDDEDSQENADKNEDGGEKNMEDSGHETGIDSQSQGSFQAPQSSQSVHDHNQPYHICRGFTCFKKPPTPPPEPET

SMILES: CC(=O)c1c(N)nc(-c2ccccc2)nc1S
- EC50 [1]: 11 µM (active)

SMILES: OC(COCc1ccc(Cl)cc1)CN1CCN(CC(O)COCc2ccc(Cl)cc2)CC1 (stereo not drawn)
- EC50 [2]: > 20 µM (not active)
- EC50 [3]: > 20 µM (not active)

SMILES: COc1cccc(C(C#N)N2CCCCC2)c1O (stereo not drawn)
- IC50 (Protein Tat): > 100 µM (active)

SMILES: Brc1ccc(CSc2nnc(Cc3c[nH]c4ccccc34)o2)cc1
- EC50 [2]: 14.2 µM (active)
- EC50 [3]: 13.4 µM (active)
- IC50 [4]: 5.75 µM (not active)
- IC50 [5]: > 47.1 µM (inactive)
- EC50 [6]: > 53 µM (inactive)

- IC50 [7]: > 123 µM (inactive)
- IC50 [8]: > 123 µM (inactive)
SMILES: COc1ccc(NC(=O)c2cc(-c3ccc(OC)c(OC)c3)on2)cc1OC

SMILES: Cc1cc(C(=O)COC(=O)c2cccn2C)c(C)n1Cc1ccco1
- AC50 [9]: 5.16 µM (active)
- AC50 [10]: 9.65 µM (active)
- AC50 [11]: > 52 µM (inactive)

SMILES: C=CCc1cccc(CNc2nc3ccccc3n2CC)c1O
- EC50 [2]: > 20 µM (not active)
- EC50 [3]: > 20 µM (not active)

- IC50 (Large T antigen): 10.2 µM (active)
- IC50 (Protein Tat): 14 µM (inconclusive)
SMILES: CCOC(=O)N1CCN(c2ccc(O)cc2)CC1
- CC50 [12]: > 40 µM (active)

SMILES: CCOc1cc(Br)cc(C(c2c(C(=O)O)[nH]c3ccccc23)c2c(C(=O)O)[nH]c3ccccc23)c1O
- IC50 (Genome polyprotein): 18.7 µM (active)
- IC50 [7]: 18.6 µM (inactive)
- IC50 [8]: > 122 µM (inactive)

- IC50 [7]: > 122 µM (inactive)
- IC50 [8]: > 122 µM (inactive)
SMILES: COC(=O)C[C@@H]1CC[C@@H]2[C@H](COc3ccc(NC(=O)c4cccc(F)c4)cc3C(=O)N2C)O1

SMILES: COc1cc(CN2C[C@@H]3N[C@H](C2)[C@@H]3c2ccc(/C=C/c3ccccc3)cc2)cc(OC)c1
- AC50 [13]: 13 µM (active)
- AC50 [14]: 2.38 µM (active)
- AC50 [15]: 6.51 µM (active)

SMILES: COc1ccc2c3c(n(C)c2c1)[C@H](CO)N(C(=O)Nc1ccc(F)cc1)CC31CN(C(=O)c2ccc3c(c2)OCO3)C1
- AC50 [16]: 1.89 µM (active)
- AC50 [17]: > 100 µM (inactive)
- AC50 [14]: 2.68 µM (active)
- AC50 [18]: 0.683 µM (active)
- AC50 [19]: 1.2 µM (active)

SMILES: CO[C@@H]1CN(C)C(=O)c2ccc(NC(=O)c3nc4ccccc4s3)cc2OC[C@@H](C)N(Cc2ccncc2)C[C@H]1C
- AC50 [16]: 1.39 µM (active)
- AC50 [17]: 26.7 µM (active)
- AC50 [14]: 2.62 µM (active)
- AC50 [18]: 1.33 µM (active)
- AC50 [15]: > 39 µM (inactive)
- AC50 [19]: 1.34 µM (active)

Reference: ChEMBL document CHEMBL1201862, “PubChem BioAssay data set” (2004)
